Here are results for three substances from patent US20200255492A1, “LEPTIN PEPTIDES AND THEIR USE FOR TREATING NEUROLOGICAL DISORDERS” (UNIVERSITY OF DUNDEE, priority 2017, published 2020).

The test system of experiment [1] is C57/BL6 mice. Briefly: Object-place-context (OPC) recognition task, episodic-like memory. Type of experiment: in vivo. The note with it: 100 μl IP of 7.8 nM/ml 30 min prior to testing. As to the method:
FIG. 7A, FIG. 7B, FIG. 7C and FIG. 7D show Leptin (116-130) enhances episodic-like memory. FIG. 7A: object-place-context task used to assess episodic-like memory. There are 2 sample phases in which mice are exposed to different copies of 2 different objects (star and hexagon) and allowed to explore for 3 min. In the test phase they see 2 new copies of 1 of the objects. The arrow points to the object that has not been previously seen in that place within that context. FIG. 7B: mean±SEM discrimination index for the 3 groups. *P<0.05. FIG. 7C: total exploration time in the test phase is not different between groups. FIG. 7D: exploration of the novel and familiar objects in the test phase; treatment with leptin or the leptin fragment (116-130) enhanced performance on the episodic-like memory test.
To further assess its therapeutic potential we next asked if this fragment has similar cognitive enhancing properties to the whole leptin molecule. Previous studies indicate that leptin enhances hippocampal-dependent memory (Oomura et al. 2006; Farr et al. 2006), whereas resistance to lep-tin results in impaired spatial memory (Li et al. 2002). We used the object-place-context (OPC) recognition task which models human episodic memory, the first cognitive process to be compromised in the early stages of AD (Swainson et al. 2001). […]

Experiment [2] deals with differentiated human neural cells (SH-SY5Y). Briefly: Crystal violet assay of cell number. Type of experiment: cell-based. As to the method: The human neuroblastoma cell line, SH-SY5Y (ECACC, UK) was maintained in Dulbecco's Modified Eagle Medium supplemented with glucose ([…]) and 10% (v/v) cosmic calf serum (Fisher Scientific, UK) at 37° C. in a humidified atmosphere of 5% CO2, 95% air and allowed to reach 70-80% confluence before seeding. Cells (passage 10-18) were plated at 10 000 cells per well in 96 well tissue culture plates (Nunc, VWR, UK) and at a density of 2×10^5 cells in 35 mm dishes for protein extraction. To induce differentiation, cells were cultured in DMEM supplemented with glucose ([…]), 1% (v/v) cosmic calf serum and 10 μM retinoic acid for 5 days. Thereafter they were incubated in DMEM supplemented with glucose ([…]), serum replacement 2 (2%; Sigma, UK) and 18 μM 5-fluorodeoxyuridine to inhibit proliferation of undifferentiated cells. The 50% of the medium was changed every 2-3 days and pharmacological treatment was carried out 7 days after switching to this medium. Reagents used were (from Sigma UK unless stated) 0.1-10 nM human leptin and leptin (116-130); 0.1-10 nM leptin (22-56; Bachem; Switzerland); 10 nM leptin (116-121) leptin (117-122), leptin (124-129) or leptin (125-130; all Severn Biotech, UK); 5 μM copper chloride; […], 5 μM WP1066 or 50 nM wortmannin. All treatments were added to the culture at the same time and survival assays were carried out after 96 h treatment. Protein samples for signaling ELISA were extracted 3 h after exposure to the relevant reagents and for biomarker expression after 72 hours.
The concentration of lactate dehydrogenase (LDH) in the culture medium or the mitochondrial activity within cells was used to monitor the level of cell death, as previously (Oldreive and Doherty 2010). In certain experiments, a Crystal violet assay was used to assess total cell number. Cells were fixed in neutral buffered formalin and washed 3 times in PBS prior to staining with 0.01% crystal violet acetate for 5 min. Plates were washed 5-10 times in dH2O and cells solubilised in 100 μl dimethyl sulfoxide (DMSO) before reading the absorbance on a Biohit BP100 plate reader. For all assays, data is expressed as percentage relative to control, untreated wells to normalize for differences in plating density between individual experiments.
In parallel studies a crystal violet assay was used to verify these findings by assessing cell number. In CuCl2-treated cells, there was a concentration-dependent increase in the survival of cells treated with either leptin or leptin (116-130). […] Treatment with leptin (116-130) also mirrored leptin action by increasing cell viability in Aβ1-42-treated cultures as cell number increased by 19.2±15% and 44.3±7.5% after treatment with 0.1 nM or 10 nM leptin, respectively (n=5 for each; P<0.01).

The test system of experiment [3] is leptin-deficient ob/ob mice. Particulars: cited from earlier work.

As for “leptin: the metabolic hormone leptin, whole (full length) leptin molecule; human leptin from Sigma in SH-SY5Y work”, the “performance (discrimination index) in episodic-like OPC task” value in experiment [1] is listed as “enhanced performance on the task relative to the control group”. For the same substance, in experiment [2] (0.1 nM), the “increase in cell number, Aβ1-42-treated cultures” value came to 19.2±15% and the “increase in cell number, CuCl2-treated cells” value (“increase … CuCl2-treated cells” for short) amounted to 16.7±3.4%. For the same substance, in experiment [2] (10 nM), the “increase in cell number, Aβ1-42-treated cultures” value is given as 44.3±7.5% and the “increase … CuCl2-treated cells” value came to 43.4±9.2%.
For the substance “SCSLPQ (listed as Mus musculus) [leptin (116-121)]”, in experiment [3], the body weight result was “reduced food intake and body weight”; the food intake entry was “reduced food intake and body weight”.
For the substance “SCSLPQTSGLQKPES (listed as Mus musculus) [leptin (116-130)]”, in experiment [3], the body weight result is “reduced food intake and body weight”; the food intake entry was “reduced food intake and body weight”. Besides, the “performance (discrimination index) in episodic-like OPC task” value in experiment [1] is given as “enhanced performance on the task relative to the control group”. In experiment [2] (0.1 nM), the “increase in cell number, Aβ1-42-treated cultures” value is on record as 29.4±9.4% and the “increase … CuCl2-treated cells” value is listed as 27.8±10.6%. Further, in experiment [2] (10 nM), the “increase in cell number, Aβ1-42-treated cultures” value turned out to be 51.8±6.3% and the “increase … CuCl2-treated cells” value turned out to be 39.9±13.5%.
